The text below walks through data of patent US20110160252A1, “PHARMACEUTICAL COMPOSITIONS FOR TREATMENT OR PREVENTION OF HBV INFECTION” (priority 2008, published 2011).

The subject of experiment [1] is HBV (genotype C_AT; wild-type strain). Nature of the experiment: Anti-HBV effect on HBV-infected Huh-7 cells, HBV-DNA in supernatant by real-time PCR (wild-type strain). It is filed as cell-based. The note with it: Hepatitis B virus. Here is the method: The present inventors assessed the anti-HBV effect of the compound represented by formula (III) on Huh-7 cells infected with HBV (genotype C_AT; wild-type strain).
(§1) On the day before HBV infection, about 100,000 Huh-7 cells were plated in 12-well plates (FALCON, 353043) using culture medium DMEM (SIGMA, D6429).
On the day of infection, 50 μl of a homogenous mixture of 0.5 μg of HBV-DNA (described in “Sugiyama M, et al. HEPATOLOGY, Vol. 44: 915-924, 2006”), 1.5 μl of FUGENE6 (Roche Diagnostics; 11 814 443 001), 5 μl of SEAP, and 43 μl of OPTIMEM (Invitrogen; 31985) was added to the Huh-7 cells in each well. Then, the compound represented by formula (III) was added at a final concentration of 0, 3, 10, or 30 μM.
The cells were cultured at 37° C. under 5% CO2 for three days, and then culture supernatant was collected from each well. The supernatant was treated with deoxyribonuclease (DNase) to remove free DNA. […]
(§2) HBV was quantified by measuring HBV-DNA using real-time PCR (Device used: Applied Biosystems, 4318157). […]
(§3) (SEQ ID NO: 2); and HBVSP2 has the sequence of: FAM-[…]-TAMRA (SEQ ID NO: 3)). […] HBV-DNA copy numbers were determined from the obtained fluorescent signals.
In general terms: Quantitative PCR measures a nucleic acid by following its amplification.

Experiment [2] relates to HBV strain B, L180M+M204V+T184L (Entecavir-resistant strain). Nature of the experiment: HBV propagation suppression in Huh-7 cells, strain B (Entecavir-resistant). It is filed as cell-based. The following applies: Hepatitis B virus, Huh-7, read-out: 50% propagation suppression. Here is the method:
(§4) FIG. 1B is a graph showing the effect of an agent on Huh-7 cells infected with various HBV strains. • A: highly Lamivudine-resistant strain, 50% propagation suppression=3.4 μM; • B: Entecavir-resistant strain, 50% propagation suppression=3.7 μM; • C: Lamivudine-resistant strain, 50% propagation suppression=3.6 μM; • Wild: wild-type strain, 50% propagation suppression=3.2
as §1
(§5) On the day of infection, 50 μl of a homogenous mixture of 0.5 μg of HBV-DNA (described in “Sugiyama M, et al. HEPATOLOGY, Vol. 44: 915-924, 2006”), 1.5 μl of FUGENE6 (Roche Diagnostics; 11 814 443 001), 5 μl of SEAP, and 43 μl of OPTIMEM (Invitrogen; 31985) was added to the Huh-7 cells in each well. […]
as §2, §3
(§6) Furthermore, the effect of suppressing HBV propagation was assessed by the same method using Lamivudine- and Entecavir-resistant strains (A, L180M+M204V; B, L180M+M204V+T184L; C, M204V (YVDD)) as well as wild-type HBV strain (Wild).

In experiment [3] the test system is HBV strain A, L180M+M204V (highly Lamivudine-resistant strain). Nature of the experiment: HBV propagation suppression in Huh-7 cells, strain A (highly Lamivudine-resistant). It is filed as cell-based. The following applies: Hepatitis B virus, Huh-7, read-out: 50% propagation suppression. Here is the method:
as §4, §1, §5, §2, §3, §6

Experiment [4] relates to HBV strain C, M204V (YVDD) (Lamivudine-resistant strain). Nature of the experiment: HBV propagation suppression in Huh-7 cells, strain C (Lamivudine-resistant). It is filed as cell-based. The note with it: Hepatitis B virus, Huh-7, read-out: 50% propagation suppression. Here is the method: as §4, §1, §5, §2, §3, §6
Experiment [5] relates to HBV (genotype C_AT; wild-type strain). Nature of the experiment: Virus titer in chimeric mice having human liver infected with genotype C_AT HBV (Example 4). The note with it: second week, formula (III) 5 mg/kg iv daily, PEG-IFN 30 μg/kg sc, ETV 0.02 mg/kg oral daily (FIG. 4). It is filed as in vivo, Hepatitis B virus. The source says:
(§7) Next, serum HBV was purified by the same method as described in Example 1, and HBV was quantified by measuring HBV-DNA using real-time PCR method. The sequences of primers HBSF2: 5′-CTTCATCCTGCTGCTATGCCT-3′[nt 406-426] (SEQ ID NO: 4) and HBSR2: 5′-AAAGCCCAGGATGATGGGAT-3′[nt 646-627] (SEQ ID NO: 5), and the sequence of TaqMan probe HBSP2 (nt 461-488) (5′-ATGTTGCCCGTTTGTCCTCTAATTCCA-3′ (SEQ ID NO: 6)) were the same as those described in the reference (Abe A, Inoue K, Tanaka T, Kato J, Kajiyama N, Kawaguchi R, Tanaka S, et al. Quantitation of hepatitis B virus genomic DNA by real-time detection PCR. J Clin Microbiol (1999) 37: 2899-2903).
The same test as described in Example 3 was carried out using chimeric mice (purchased from PhoenixBio Co., Ltd.) having human liver infected with HBV (genotype C_AT; wild-type strain). The compound represented by formula (III) was administered at 5 mg/kg (intravenous injection every day), while PEG-IFN was administered at 30 μg/kg (subcutaneous injection). Entecavir (ETV) was administered at 0.02 mg/kg (oral administration every day).

For experiment [6], the system named is genotype C HBV (L180M+S202G+M204V; ETV-resistant strain). Nature of the experiment: Virus titer in chimeric mice having human liver infected with ETV-resistant genotype C HBV (Example 5). It is filed as in vivo, Hepatitis B virus. The following applies: formula (III) 5 mg/kg iv daily, PEG-IFN 30 μg/kg sc, ETV 0.02 mg/kg oral daily (FIG. 5).
From the text: as §7
The same test as described in Example 3 was carried out using chimeric mice (purchased from PhoenixBio Co., Ltd.) having human liver infected with genotype C HBV (L180M+S202G+M204V; ETV-resistant strain). The compound represented by formula (III) was administered at 5 mg/kg (intravenous injection every day), while PEG-IFN was administered at 30 μg/kg (subcutaneous injection). Entecavir (ETV) was administered at 0.02 mg/kg (oral administration every day).

Read-outs that look alike come from different tables or passages of the source.

For the compound `CC#CCOc1ccc(C[C@H](NC(=O)[C@@H](/C=C/CCCCCCC(=O)CCCCCCC)[C@@](O)(CC(=O)O)C(=O)O)C(=O)O)cc1` [compound represented by formula (III)], the IC50 in experiment [1] (72 h, Huh-7 cells, genotype C_AT wild-type HBV, three days culture, HBV-DNA in supernatant (FIG. 1A), read-out: 50%-inhibition concentration (IC50)) is approximately 3 µM; in experiment [1] (Huh-7, read-out: 50% propagation suppression) it was 3.2 µM; in experiment [2], 3.7 µM; in experiment [3], 3.4 µM; in experiment [4], 3.6 µM.
As for `C=C1[C@H](CO)[C@@H](O)C[C@@H]1n1cnc2c(=O)[nH]c(N)nc21` [ETV, Entecavir], the “mean decrease of virus titer” value in experiment [5] was 1.4 Log. In experiment [6], the viral decrease is given as 0.3 Log.
